How the values were obtained:
[1] = system: Magnaporthe grisea (Pyricularia oryzae); assay: whole plant or invertebrate; format: in vivo; details: foliar, read-out: control of Magnaporthe grisea
[2] = system: Magnaporthe grisea (Pyricularia oryzae); assay: microbe, parasite or virus in culture; format: cell-based; details: read-out: control of Magnaporthe grisea
Fusarium culmorum [3] = assay: whole plant or invertebrate; format: in vivo; details: in Triticum aestivum, read-out: control of Fusarium culmorum
[4] = system: Glomerella lagenarium (Colletotrichum lagenarium); assay: Glomerella lagenarium (Colletotrichum lagenarium)/Liquid Culture (Anthracnose); format: cell-based; details: Colletotrichum orbiculare; 200 ppm; liquid culture, compared to untreated control, 3-4 days after application; read-out: control of Glomerella lagenarium
Fusarium culmorum [5] = assay: microbe, parasite or virus in culture; format: cell-based; details: read-out: control of Fusarium culmorum
[6] = system: Botryotinia fuckeliana (Botrytis cinerea); assay: Botryotinia fuckeliana (Botrytis cinerea)/Liquid Culture (Gray Mould); format: cell-based; details: 200 ppm, liquid culture, compared to untreated control, 3-4 days after application, read-out: control of Botryotinia fuckeliana
Sclerotinia sclerotiorum = assay: Sclerotinia sclerotiorum/Liquid Culture (Cottony Rot); details: read-out: control of Sclerotinia sclerotiorum
Description: Mycelia fragments of a newly grown liquid culture of the fungus are directly mixed into nutrient broth (Vogels broth). After placing a (DMSO) solution of test compound into a microtiter plate (96-well format) the nutrient broth containing the fungal material is added. The test plates are incubated at 24° C. and the inhibition of growth is determined photometrically 3-4 days after application.

[7] = system: Monographella nivalis (Microdochium nivale); assay: Monographella nivalis (Microdochium nivale)/Liquid Culture (Foot Rot Cereals); format: cell-based; details: 200 ppm, liquid culture, compared to untreated control, 4-5 days after application, read-out: control of Monographella nivalis

| SMILES | pest or weed control at 200 ppm [1] | inhibition of growth at 200 ppm [2] | pest or weed control at 200 ppm (Fusarium culmorum [3]) | inhibition of growth at 200 ppm [4] | inhibition of growth at 200 ppm (Fusarium culmorum [5]) | inhibition of growth at 200 ppm [6] | inhibition of growth at 20 ppm (Sclerotinia sclerotiorum) | inhibition of growth at 200 ppm [7] | melting point |
| --- | --- | --- | --- | --- | --- | --- | --- | --- | --- |
| Cc1nc2c(F)cccc2cc1NC(=O)C(Cc1ccccc1)CC(F)(F)F (centres unmarked) [Compound E-44, 2-benzyl-4,4,4-trifluoro-N-(8-fluoro-2-methyl-3-quinolyl)butanamide] | ≥ 80% | ≥ 80% | ≥ 80% | ≥ 80% | ≥ 80% | ≥ 80% | – | – | – |
| C=C(C)C[C@](C)(Cc1ccccc1)C(=O)Nc1cc2cccc(F)c2nc1C [Compound F-2, (2R)-2-benzyl-N-(8-fluoro-2-methyl-3-quinolyl)-2,4-dimethyl-pent-4-enamide] | ≥ 80% | ≥ 80% | ≥ 80% | ≥ 80% | ≥ 80% | ≥ 80% | ≥ 80% | – | – |
| C=C(C)C[C@@](C)(Cc1ccccc1)C(=O)Nc1cc2cccc(F)c2nc1C [Compound F-1, (2S)-2-benzyl-N-(8-fluoro-2-methyl-3-quinolyl)-2,4-dimethyl-pent-4-enamide] | ≥ 80% | ≥ 80% | ≥ 80% | ≥ 80% | ≥ 80% | ≥ 80% | ≥ 80% | – | – |
| C=C(C)C[C@@](C)(Cc1ccccc1)C(=O)Nc1cnc2c(F)cccc2c1 [Compound F-21, (2S)-2-benzyl-N-(8-fluoro-3-quinolyl)-2,4-dimethyl-pent-4-enamide] | ≥ 80% | – | ≥ 80% | ≥ 80% | ≥ 80% | ≥ 80% | – | ≥ 80% | 132 to 135 °C |
| C=C(C)CC(CC)(Cc1ccccc1)C(=O)Nc1cnc2c(F)cccc2c1 (centres unmarked) [Compound E-46, 2-benzyl-2-ethyl-N-(8-fluoro-3-quinolyl)-4-methyl-pent-4-enamide] | ≥ 80% | ≥ 80% | – | ≥ 80% | ≥ 80% | ≥ 80% | – | ≥ 80% | – |
| CC(C)CC(F)(Cc1ccccc1)C(=O)Nc1cnc2c(F)cccc2c1 (centres unmarked) [Compound E-1, 2-benzyl-2-fluoro-N-(8-fluoro-3-quinolyl)-4-methyl-pentanamide] | ≥ 80% | – | ≥ 80% | ≥ 80% | ≥ 80% | ≥ 80% | – | ≥ 80% | – |
| C#CCC(C)(Cc1ccccc1)C(=O)Nc1cnc2c(F)cccc2c1 (centres unmarked) [Compound E-26, 2-benzyl-N-(8-fluoro-3-quinolyl)-2-methyl-pent-4-ynamide] | ≥ 80% | ≥ 80% | – | ≥ 80% | ≥ 80% | ≥ 80% | – | ≥ 80% | 189 to 191 °C |
| C=C(C)CC(Cc1ccccc1)C(=O)Nc1cnc2c(F)cccc2c1C (centres unmarked) [Compound E-93, 2-benzyl-N-(8-fluoro-4-methyl-3-quinolyl)-4-methyl-pent-4-enamide] | ≥ 80% | – | – | ≥ 80% | ≥ 80% | ≥ 80% | – | ≥ 80% | 116 to 118 °C |
| CC(Cc1ccc(F)cc1)(CC(F)(F)F)C(=O)Nc1cnc2c(F)cccc2c1 (centres unmarked) [Compound E-18, 4,4,4-trifluoro-2-[(4-fluorophenyl)methyl]-N-(8-fluoro-3-quinolyl)-2-methyl-butanamide] | ≥ 80% | ≥ 80% | – | ≥ 80% | ≥ 80% | ≥ 80% | ≥ 80% | ≥ 80% | – |
| CCCCC(C)(Cc1ccccc1)C(=O)Nc1cnc2c(F)cccc2c1 (centres unmarked) [Compound E-27, 2-benzyl-N-(8-fluoro-3-quinolyl)-2-methyl-hexanamide] | ≥ 80% | ≥ 80% | – | – | ≥ 80% | ≥ 80% | – | ≥ 80% | 135 to 137 °C |
| Cc1c(NC(=O)C(Cc2ccccc2)CC(C)C)cnc2c(F)cccc12 (centres unmarked) [Compound E-19, 2-benzyl-N-(8-fluoro-4-methyl-3-quinolyl)-4-methyl-pentanamide] | ≥ 80% | ≥ 80% | ≥ 80% | ≥ 80% | ≥ 80% | ≥ 80% | ≥ 80% | – | – |
| Cc1c(NC(=O)[C@](C)(Cc2ccccc2)CC(F)(F)F)cnc2c(F)cccc12 [Compound F-13, (2R)-2-benzyl-4,4,4-trifluoro-N-(8-fluoro-4-methyl-3-quinolyl)-2-methyl-butanamide] | – | ≥ 80% | ≥ 80% | ≥ 80% | ≥ 80% | ≥ 80% | ≥ 80% | ≥ 80% | 71 to 73 °C |
| CC(Cc1ccccc1)(CC(F)(F)F)C(=O)Nc1cnc2c(F)cccc2c1 (centres unmarked) [Compound E-80, 2-benzyl-4,4,4-trifluoro-N-(8-fluoro-3-quinolyl)-2-methyl-butanamide] | ≥ 80% | ≥ 80% | ≥ 80% | ≥ 80% | ≥ 80% | ≥ 80% | ≥ 80% | ≥ 80% | – |
| CC#CCC(C)(Cc1ccccc1)C(=O)Nc1cnc2c(F)cccc2c1 (centres unmarked) [Compound E-30, 2-benzyl-N-(8-fluoro-3-quinolyl)-2-methyl-hex-4-ynamide] | ≥ 80% | ≥ 80% | – | – | ≥ 80% | ≥ 80% | – | ≥ 80% | 136 to 138 °C |
| Cc1nc2c(F)cccc2cc1NC(=O)C(C)(Cc1cccc(F)c1)CC(C)C (centres unmarked) [Compound E-10, N-(8-fluoro-2-methyl-3-quinolyl)-2-[(3-fluorophenyl)methyl]-2,4-dimethyl-pentanamide] | – | ≥ 80% | ≥ 80% | ≥ 80% | ≥ 80% | ≥ 80% | ≥ 80% | ≥ 80% | 93 to 95 °C |
| Cc1nc2c(F)cccc2cc1NC(=O)C(C)(Cc1cccc(F)c1)CC(F)(F)F (centres unmarked) [Compound E-8, 4,4,4-trifluoro-N-(8-fluoro-2-methyl-3-quinolyl)-2-[(3-fluorophenyl)methyl]-2-methyl-butanamide] | ≥ 80% | ≥ 80% | ≥ 80% | ≥ 80% | ≥ 80% | ≥ 80% | ≥ 80% | – | – |
| C#CCC(C)(Cc1ccccc1)C(=O)Nc1cc2cccc(F)c2nc1C (centres unmarked) [Compound E-2, 2-benzyl-N-(8-fluoro-2-methyl-3-quinolyl)-2-methyl-pent-4-ynamide] | ≥ 80% | – | ≥ 80% | ≥ 80% | ≥ 80% | ≥ 80% | – | – | – |
| C=C(C)C[C@](C)(Cc1ccccc1)C(=O)Nc1cnc2c(F)cccc2c1C [Compound F-6, (2R)-2-benzyl-N-(8-fluoro-4-methyl-3-quinolyl)-2,4-dimethyl-pent-4-enamide] | ≥ 80% | ≥ 80% | ≥ 80% | ≥ 80% | ≥ 80% | ≥ 80% | ≥ 80% | ≥ 80% | – |
| CC#CCC(Cc1ccccc1)C(=O)Nc1cnc2c(F)cccc2c1 (centres unmarked) [Compound E-29, 2-benzyl-N-(8-fluoro-3-quinolyl)hex-4-ynamide] | ≥ 80% | ≥ 80% | – | – | – | ≥ 80% | – | – | 218 to 220 °C |
| C=C(Cl)CC(Cc1ccccc1)C(=O)Nc1cnc2c(F)cccc2c1 (centres unmarked) [Compound E-6, 2-benzyl-4-chloro-N-(8-fluoro-3-quinolyl)pent-4-enamide] | ≥ 80% | – | – | ≥ 80% | ≥ 80% | ≥ 80% | – | ≥ 80% | 166 to 168 °C |
| Cc1c(NC(=O)[C@@](C)(Cc2ccccc2)CC(C)C)cnc2c(F)cccc12 [Compound F-4, (2R)-2-benzyl-N-(8-fluoro-4-methyl-3-quinolyl)-2,4-dimethyl-pentanamide] | ≥ 80% | – | ≥ 80% | ≥ 80% | ≥ 80% | ≥ 80% | – | – | – |

Source: US10952436B2, “Microbiocidal quinoline (thio)carboxamide derivatives” (SYNGENTA PARTICIPATIONS AG, priority 2017, dated 2021)
